Results published in PubChem BioAssay (NCI).
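Results reflect a 48-hour exposure of cells in 96-well plates to compound at five concentrations. GI50 marks 50% less growth. TGI: concentration producing complete growth inhibition.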

Legend:
Experiment in all cases: NCI-60 cell line screen, 48 h
[1] = tested on: CCRF-CEM leukemia
[2] = tested on: OVCAR-4 ovarian
[3] = tested on: MDA-MB-435
[4] = tested on: MALME-3M melanoma
[5] = tested on: SW-620 colon
[6] = tested on: UO-31 renal
[7] = tested on: MOLT-4 leukemia
[8] = tested on: HCT-15 colon
[9] = tested on: SK-MEL-28 melanoma
[10] = tested on: MDA-MB-231 breast

Row | SMILES | TGI [1] [µM] | TGI [2] [µM] | GI50 [3] [µM] | TGI [3] [µM] | TGI [4] [µM] | TGI [5] [µM] | TGI [6] [µM] | TGI [7] [µM] | TGI [8] [µM] | TGI [9] [µM] | TGI [10] [µM]
1 | Cc1cc2c(cc1O)CC[C@@H]1[C@@H]2CC[C@]2(C)[C@@H](O)CC[C@@H]12 | 27.4 | 29.2 | 1.8 | 3.65 | 19.4 | 37.5 | 37.6 | 17.7 | 16.4 | 27.3 | 21.8
2 | Cc1ccc(/C=C2\NC(=S)N(CN3CCOCC3)C2=O)cc1 | > 100 | > 100 | – | > 100 | > 100 | > 100 | > 100 | > 100 | > 100 | > 100 | > 100
3 | O=C(O)c1c(-c2c3ccc(=O)cc-3oc3cc(O)ccc23)cc2ccccc2c1-c1ccccc1 | > 67.3 | > 100 | – | > 100 | > 100 | > 100 | > 100 | 8.37 | > 100 | > 100 | > 100
4 | COc1cccc(NCC(=O)Nn2c(-c3ccccc3)nc3ccccc3c2=O)c1 | > 100 | > 100 | – | > 100 | > 100 | > 100 | > 100 | > 100 | > 100 | > 100 | > 100
5 | O=C(CCCCCCCCC(=O)NN1C(=O)/C(=C\c2ccc(O)c(O)c2)SC1c1c(O)ccc2ccccc12)NN1C(=O)C(=Cc2ccc(O)c(O)c2)SC1c1c(O)ccc2ccccc12 (stereo unspecified) | 6.32 | > 100 | – | > 100 | 74 | > 100 | 26.8 | > 29.8 | > 100 | > 100 | > 87.7
6 | CCOC(=O)c1c(C)n(Cc2ccccc2)c2c1cc(O)c1[nH]c3c(c12)CCCC3 | 7.4 | 4.08 | – | 24.4 | 15.6 | 13.3 | 6.43 | 12.6 | 13.9 | 18.7 | 19
7 | O=c1c2cc(Br)ccc2oc2nc3n(c(=O)c12)CCCS3 | > 100 | > 100 | – | > 100 | > 100 | > 100 | > 100 | > 100 | > 100 | > 100 | > 100
8 | Cn1c(N2CCCC2)c(C=O)c(=O)n(C)c1=O | > 100 | > 100 | – | > 100 | > 100 | > 100 | > 100 | > 100 | > 100 | > 100 | > 100
9 | N[C@@H]1c2c(Br)sc(Br)c2[C@H](O)[C@@H]1O | > 100 | > 100 | – | > 100 | > 100 | > 100 | > 100 | > 100 | > 100 | > 100 | > 100
10 | OC1C(O)C(O)C(O)C(O)C1O (stereo unspecified) | 144 | > 1000 | – | > 1000 | > 1000 | > 1000 | > 1000 | 916 | > 1000 | > 1000 | > 1000
11 | N=c1c2c3n(c4c(=O)n(-c5ccccc5)c(=S)n(c(=O)n1-c1ccccc1)c24)CCCCC3 | > 100 | > 100 | – | > 100 | > 100 | > 100 | > 100 | > 71.6 | > 100 | > 100 | > 100
12 | CO/N=C1\CCC2(O)C3Cc4ccc(O)c5c4C2(CCN3CC2CC2)[C@H]1O5 (stereo partly specified) | > 100 | > 100 | – | > 100 | > 100 | > 100 | > 100 | > 100 | > 100 | > 100 | > 100
13 | Cc1ccc(C(=O)CC(Cl)=C(Cl)Cl)cc1 | 52.1 | > 100 | – | > 100 | > 100 | > 100 | > 100 | 47 | > 100 | > 100 | > 100
14 | Cc1cccc2sc(NC(=O)c3cc([N+](=O)[O-])ccc3Cl)nc12 | 2.76 | > 100 | – | 12.6 | 30.3 | 6.35 | 10.4 | > 100 | > 29.1 | > 94.2 | > 100
15 | COC(=O)C(NC(=O)CNC(=O)CSc1nnc(COc2ccc(Cl)cc2)n1-c1ccccc1)C(C)C (stereo unspecified) | > 100 | 57.1 | – | 47.4 | 35.5 | 38.2 | 33.3 | > 100 | 48.9 | 31.1 | 36.5
16 | C/C=C(/C)C(=O)O[C@@H]1c2c(C)coc2C[C@H]2CC[C@H](O)[C@H](C)[C@]21C | > 100 | > 100 | – | > 100 | 77.9 | > 100 | > 100 | > 100 | > 100 | > 100 | > 100
17 | COc1ccc(-c2cc(-c3ccc(Nc4ccnc5cc(C(F)(F)F)ccc45)cc3)[nH]c(=O)c2C#N)c2ccccc12 | > 56.8 | > 100 | – | > 56.1 | > 63.2 | > 100 | > 65.9 | > 100 | > 100 | > 100 | > 59.8
